From PMC8957246, “Synthesis and diverse biological activity profile of triethylammonium isatin-3-hydrazones” (ADMET & DMPK, 2022)
Marks after values point to notes of the source that are not given here.

Assays:
[1] = system: activated partial thromboplastin time (intrinsic coagulation pathway); assay: Anticoagulant activity, clotting test APTT; parameters: species or system human; settings: for APTT, % of control: concentration 5×10^–4 g/mL, median (25-75 percentiles); for anticoagulant activity: APTT, p<0.05
Method: The in vitro experiments were performed using the blood of healthy male donors aged 18-24 years (total 54 donors). The study was approved by the Ethics Committee of Federal State Budgetary Educational Institution of Higher Education at the Bashkir State Medical University of the Ministry of Health of Russian Federation (No.2 dated 17.10.2012). Informed consent was obtained from all participants before blood sampling. The blood was collected from the cubital vein using the system of vacuum blood collection BD Vacutainer® (Becton, Dickinson and Company, USA). A 3.8 % sodium citrate solution in a 9:1 ratio was used as a venous blood stabiliser. The study of the effect on platelet aggregation was performed using the Born method using the aggregometer «AT-02» (SPC Medtech, Russia). The assessment of antiplatelet activity of the studied compounds and reference preparations was started with the final concentration of 2×10^–3 mol/L. Adenosine diphosphate (ADP; 20 μg/mL) and collagen (5 mg/mL) manufactured by Tehnologia-Standart Company, Russia, were used as inducers of aggregation. The study on the anticoagulant activity was performed by standard recognised clotting tests using the optical two-channel automatic analyser of blood coagulation Solar CGL 2110 (CJSC SOLAR, Belarus). The following parameters were studied: activated partial thromboplastin time (APTT), prothrombin time (PT) and fibrinogen concentrations according to the Clauss method. The determination of anticoagulant activity of the studied compounds and reference preparation was performed in a concentration of 5×10^–4 g/mL using the reagents manufactured by Tehnologia-Standart Company (Barnaul, Russia). The results of the study were processed using the statistical package Statistica 10.0 (StatSoft Inc, USA). The Shapiro–Wilk’s test was used to check the normality of actual data distribution. The form of distribution of the data obtained differed from the normal one; therefore, non-parametric methods were used for further analysis. The data were presented as medians and 25 and 75 percentiles. Analysis of variance was conducted using Kruskal–Wallis test. A p value of 0.05 was considered statistically significant.

[2] = system: methicillin-resistant strains of S. aureus (MRSA-1); assay: Antimicrobial activity, serial dilution (MIC/MBC), MRSA-1; assay type: cell-based; settings: Staphylococcus aureus
Method: (§1) The antimicrobial activity of the test compounds was determined by the serial dilution technique in Muller Hinton Broth 2 and in Sabouradu broth for fungi. The cultures used for testing included Gram-positive bacteria: Staphylococcus aureus ATCC 6538P FDA 209P, Bacillus cereus ATCC 10702 NCTC 8035, Enterococcus faecalis ATCC 29212; Gram-negative bacteria: Escherichia coli ATCC 25922, Pseudomonas aeruginosa ATCC 9027, and fungi: Trichophyton mentagrophytes var. gypseum 1773, and Candida albicans ATCC 10231; methicillin-resistant strains of S. aureus (MRSA) was obtained from hospital patients with chronic tonsillitis in the Republican Clinical Hospital (Kazan, Russia). The bacterial load was 3.0 × 10^5 cfu/ml. The fungi load was 2.0 × 10^3 cfu/ml. The results were recorded every 24 h for 5-7 days. Cultures were incubated at 37 °C. The experiment was repeated three times. […] The minimum inhibitory concentration (MIC) was defined as the minimum concentration of a compound that inhibits the growth of the corresponding test microorganism. The growth of bacteria, as well as the absence of the growth due to the bacteriostatic action of compounds, were recorded.
(§2) Synthesized compounds were further evaluated for antimicrobial activity against test microorganisms: Staphylococcus aureus ATCC 209p (Sa), Bacillus cereus ATCC 8035 (Bc), Escherichia coli CDC F-50 (Ec), Enterococcus faecalis (Ef), Pseudomonas aeruginosa ATCC 9027, Aspergillus niger BKMF-1119, Trichophyton mentagrophytes var. gypseum 1773, and Candida albicans 855-653 including methicillin-resistant strains of S. aureus (MRSA 1 and MRSA 2). The minimum inhibitory (MIC) and minimum bactericidal (MBC) concentrations of ammonium salts were determined against these pathogens (Table 1). Due to the lack of activity of compounds 3a-g against Gram-negative bacterial strains and some fungi, the corresponding data are not shown.

[3] = system: MRSA-1 and MRSA-2 compared to erythrocytes and hepatocytes; assay: Selectivity index (HC50 or IC50 / MIC); parameters: species or system Staphylococcus aureus; settings: resistant strains MRSA-1 and MRSA-2 compared to erythrocytes and hepatocytes
Method: The selectivity of compounds for microbial cells is an important criterion for assessing the cytotoxic effect. This indicator is characterized by the value of the selectivity index (SI), which for the leading compounds 3b, 3c, and 3d was calculated as the ratio between the HC50 value for erythrocytes (IC50 for eukaryotic cells) and the MIC value for bacterial cells (Fig. 4). […] Its selectivity index was 3–8 times higher than that of compounds 3b and 3c.

[4] = system: methicillin-resistant strains of S. aureus (MRSA-2); assay: Antimicrobial activity, serial dilution (MIC/MBC), MRSA-2; assay type: cell-based; settings: Staphylococcus aureus
Method: as §1, §2

Row | Structure (SMILES) | APTT, % of control [1] | anticoagulant activity [1] | MBC [2] | MIC [2] | selectivity index, times higher than that of compounds 3b and 3c [3] | MBC [4] | MIC [4]
1 | CC[N+](CC)(CC)CC(=O)N/N=C1\C(=O)N(Cc2cc(C(C)(C)C)c(O)c(C(C)(C)C)c2)c2c(Br)cc(Cl)cc21 [Compound 3g, 2-(2-(1-(3,5-Di-tert-butyl-4-hydroxybenzyl)-5-chloro-7-bromo-2-oxoindolin-3-ylidene)hydrazinyl)-N,N,N-triethyl-2-oxoethanammonium bromide] | +8.6 (6.1-10.9) ^*, ^† % of control | – | – | – | – | – | –
2 | CC[N+](CC)(CC)CC(=O)N/N=C1\C(=O)N(Cc2cc(C(C)(C)C)c(O)c(C(C)(C)C)c2)c2ccc([N+](=O)[O-])cc21 [Compound 3f, 2-(2-(1-(3,5-Di-tert-butyl-4-hydroxybenzyl)-5-nitro-2-oxoindolin-3-ylidene)hydrazinyl)-N,N,N-triethyl-2-oxoethanammonium bromide] | +10.3 (8.5-12.7) ^*, ^† % of control | ≥ 10% | – | – | – | – | –
3 | CC[N+](CC)(CC)CC(=O)N/N=C1\C(=O)N(Cc2cc(C(C)(C)C)c(O)c(C(C)(C)C)c2)c2ccccc21 [Compound 3a, 2-(2-(1-(3,5-Di-tert-butyl-4-hydroxybenzyl)-2-oxoindolin-3-ylidene)hydrazinyl)-N,N,N-triethyl-2-oxoethanammonium bromide] | +5.2 (4.1-7.6) ^*, ^† % of control | – | – | – | – | – | –
4 | CC[N+](CC)(CC)CC(=O)N/N=C1\C(=O)N(Cc2cc(C(C)(C)C)c(O)c(C(C)(C)C)c2)c2cccc(Br)c21 [Compound 3e, 2-(2-(1-(3,5-Di-tert-butyl-4-hydroxybenzyl)-4-bromo-2-oxoindolin-3-ylidene)hydrazinyl)-N,N,N-triethyl-2-oxoethanammonium bromide] | +3.2 (2.8-5.4) ^‡ % of control | – | – | – | – | – | –
5 | CC[N+](CC)(CC)CC(=O)N/N=C1\C(=O)N(Cc2cc(C(C)(C)C)c(O)c(C(C)(C)C)c2)c2c1ccc(C)c2C [Compound 3d, 2-(2-(1-(3,5-Di-tert-butyl-4-hydroxybenzyl)-6,7-dimethyl-2-oxoindolin-3-ylidene)hydrazinyl)-N,N,N-triethyl-2-oxoethanammonium bromide] | +4.8 (3.7-6.9) ^‡ % of control | – | 12.4 µM | 6.2 ± 0.5 µM | 3–8 times | 49.6 µM | 6.2 ± 0.5 µM
6 | CCc1cccc2c1N(Cc1cc(C(C)(C)C)c(O)c(C(C)(C)C)c1)C(=O)/C2=N\NC(=O)C[N+](CC)(CC)CC [Compound 3c, 2-(2-(1-(3,5-Di-tert-butyl-4-hydroxybenzyl)-7-ethyl-2-oxoindolin-3-ylidene)hydrazinyl)-N,N,N-triethyl-2-oxoethanammonium bromide] | +11.2 (7.9-13.1) ^*, ^† % of control | ≥ 10% | 99.3 µM | 49.7 ± 3.9 µM | – | 99.3 µM | 24.8 ± 2.2 µM
